Reference: patent US5128331A, “Method for lowering plasma lipid levels or blood pressure” (priority 1988, dated 1992)
Read-outs that look alike come from different tables or passages of the source.

System: mice of the OF1 strain
Assay: Hypolipidemic activity: plasma cholesterol and plasma triglycerides in mice fed compound in chow
Type: in vivo
Conditions: for change in vivo at 180 mg/kg: Mus musculus, feed or water, 240 h
Procedure: With the goal of finding new drugs which might be hypolipidemic, the new diphosphonates described in this patent application were administered orally to mice. This rodent species has plasma lipid level relatively close to man (generally greater than 150 mg/dl). For example, in mice receiving a normal diet the plasma cholesterol and triglyceride levels are in the range of 100 mg/dl, whereas for rat the comparative values are close to 50 mg/dl.
In every screening experiment, 30 mice of the OF1 strain weighing 25 to 35 g were divided into 5 groups of 6 animals each. Four groups received the compounds to be tested, or the reference drugs, the fifth group served as control. Compounds were dissolved in diethyl ether, and solution was added to the pelleted food and the ether was evaporated.
All compounds were tested at the final concentration of 0.1% in animal chow, equivalent to a daily intake of about 180 mg/kg. This diet was fed for 10 days, then after an overnight fasting the animals were sacrified by decapitation under ether anesthesia. Blood samples were collected in EDTA containing tubes.
Plasma cholesterol and plasma triglycerides were measured by enzymatic methods (Ames kit No. 6376 and No. 6630).

[1] = read-out: Cholesterol (% control)
[2] = read-out: Triglycerides (% control)
[3] = mice, 0.1% in animal chow (about 180 mg/kg daily), 10 days, Table 3, given as change from control, read-out: Cholesterol (% control)
[4] = mice, 0.1% in animal chow (about 180 mg/kg daily), 10 days, Table 3, given as change from control, read-out: Triglycerides (% control)

Compound | change in vivo at 180 mg/kg [1] [%] | change in vivo at 180 mg/kg [2] [%] | hypocholesterolemic activity (in words) (mice, 0.1% in chow, 10 days) | hypotriglyceridemia (in words) (mice, 0.1% in chow, 10 days) | change in vivo at 180 mg/kg [3] [%] | change in vivo at 180 mg/kg [4] [%] | decreased plasma triglycerides by (mice, 0.1% in chow, 10 days) | hypocholesterolemic potency (plasma cholesterol change) (mice, 0.1% in chow, 10 days) [%] | hypotriglyceridemic potency (plasma triglyceride change) (mice, 0.1% in chow, 10 days) [%]
CCOP(=O)(OCC)C(CC)(Cc1cc(C(C)(C)C)c(O)c(C(C)(C)C)c1)P(=O)(OCC)OCC [Compound 21, Tetraethyl 1-(3,5-ditertiarybutyl-4-hydroxyphenyl)-butylidene-2,2-diphosphonate] | -16 | -28 | hypocholesterolemic | significant hypotriglyceridemia | – | – | – | – | –
CC(C)(C)c1cc(CC(P2(=O)OCCCO2)P2(=O)OCCCO2)cc(C(C)(C)C)c1O [Compound 24] | – | – | hypocholesterolemic | significant hypotriglyceridemia | -20 | -71 | more than 44% | – | –
CC(C)OP(=O)(OC(C)C)C(=Cc1cc(C(C)(C)C)c(O)c(C(C)(C)C)c1)P(=O)(OC(C)C)OC(C)C [Compound 34] | – | – | hypocholesterolemic | – | -41 | 11 | – | -41 | –
CC(C)OC(=O)C(C)(C)Oc1ccc(C(=O)c2ccc(Cl)cc2)cc1 [Fenofibrate, reference compound] | – | – | less hypocholesterolemic than many of the diphosphonates tested | – | -15 | -2 | – | -15 | –
CCOP(=O)(OCC)C(=Cc1cc(C)c(O)c(C(C)(C)C)c1)P(=O)(OCC)OCC [Compound 30, Tetraethyl 2-(3-tertiarybutyl-4-hydroxy-5-methylphenyl)-ethenylidene-1,1-diphosphonate] | 2 | -45 | – | significant hypotriglyceridemia | – | – | more than 44% | – | –
CCOC(=O)C(C)(C)Oc1ccc(Cl)cc1 [Clofibrate, reference compound] | – | – | less hypocholesterolemic than many of the diphosphonates tested | – | 4 | -5 | – | – | –
CCOP(=O)(OCC)C(=Cc1cc(C(C)C)c(O)c(C(C)C)c1)P(=O)(OCC)OCC [Compound 31] | 4 | -11 | – | significant hypotriglyceridemia | – | – | – | – | –
CCCOP(=O)(OCCC)C(Cc1cc(C(C)(C)C)c(O)c(C(C)(C)C)c1)P(=O)(OCCC)OCCC [Compound 23] | -15 | -33 | hypocholesterolemic | significant hypotriglyceridemia | – | – | – | – | –
CCOP(=O)(OCC)C(=Cc1ccc2c(c1)OCO2)P(=O)(OCC)OCC [Compound 38, Tetraethyl 2(3,4-methylenedioxyphenyl)-ethenylidene-1,1-diphosphonate] | -5 | -6 | – | – | – | – | – | – | –
CCOP(=O)(OCC)C(=CC=Cc1cc(C(C)(C)C)c(O)c(C(C)(C)C)c1)P(=O)(OCC)OCC [Compound 43, Tetraethyl 4-(3,5-ditertiarybutyl-4-hydroxyphenyl)-1,3-butadienylidene-1,1-diphosphonate] | -5 | -14 | – | – | – | – | – | – | –
CCOP(=O)(OCC)C(=Cc1cc(C(C)CC)c(O)c(C(C)CC)c1)P(=O)(OCC)OCC (stereo not shown) [Compound 32] | 8 | 9 | – | – | – | – | – | – | –
COP(=O)(OC)C(=Cc1cc(C(C)(C)C)c(O)c(C(C)(C)C)c1)P(=O)(OC)OC [Compound 47] | -31 | -45 | hypocholesterolemic | significant hypotriglyceridemia | – | – | more than 44% | – | –
CCOP(=O)(OCC)C(Sc1cc(C(C)(C)C)c(O)c(C(C)(C)C)c1)P(=O)(OCC)OCC [Compound 5, Tetraethyl 3,5-ditertiary-4-hydroxyphenylthio-methylenediphosphonate] | -22 | -24 | hypocholesterolemic | significant hypotriglyceridemia | – | – | – | – | –
CCOP(=O)(OCC)C(=Cc1cc(C(C)(C)C)c(OC(C)=O)c(C(C)(C)C)c1)P(=O)(OCC)OCC [Compound 41, Tetraethyl 2-(3,5-ditertiarybutyl-4-acetoxyphenyl)-ethenylidene-1,1-diphosphonate] | -3 | 6 | – | – | – | – | – | – | –
CCOP(=O)(OCC)C(CCCCCCSc1cc(C(C)(C)C)c(O)c(C(C)(C)C)c1)P(=O)(OCC)OCC [Compound 20, Tetraethyl 7-(3,5-ditertiarybutyl-4-hydroxyphenylthio)-heptylidene-1,1-diphosphonate] | 5 | 13 | – | – | – | – | – | – | –
CCOP(=O)(OCC)C(=Cc1ccc2c(c1)OCCO2)P(=O)(OCC)OCC [Compound 39] | 4 | 17 | – | – | – | – | – | – | –
COP(=O)(OC)C(Cc1cc(C(C)(C)C)c(O)c(C(C)(C)C)c1)P(=O)(OC)OC [Compound 10, Tetramethyl 2-(3,5-ditertiarybutyl-4-hydroxyphenyl)-ethylidene-1,1-diphosphonate] | -5 | -19 | – | – | – | – | – | – | –
CC(C)OP(=O)(OC(C)C)C(Sc1cc(C(C)(C)C)c(O)c(C(C)(C)C)c1)P(=O)(OC(C)C)OC(C)C [Compound 22] | -21 | -37 | hypocholesterolemic | significant hypotriglyceridemia | – | – | – | – | –
CCCCOP(=O)(OCCCC)C(=Cc1cc(C(C)(C)C)c(O)c(C(C)(C)C)c1)P(=O)(OCC)OCC [Compound 42, Dibutyl diethyl 2-(3,5-ditertiarybutyl-4-hydroxyphenyl)-ethenylidene-1,1-diphosphonate] | 12 | 1 | – | – | – | – | – | – | –
Cc1ccc(C)c(OCCCC(C)(C)C(=O)O)c1 [Gemfibrozil, reference compound] | – | – | less hypocholesterolemic than many of the diphosphonates tested | – | -7 | -35 | – | – | -35
CCOP(=O)(OCC)C(=Cc1cc(OC)c(O)c(OC)c1)P(=O)(OCC)OCC [Compound 37] | -16 | -70 | hypocholesterolemic | significant hypotriglyceridemia | – | – | more than 44% | – | –
CCCCOP(=O)(OCCCC)C(=Cc1cc(C(C)(C)C)c(O)c(C(C)(C)C)c1)P(=O)(OCCCC)OCCCC [Compound 35] | – | – | – | – | 0 | 7 | – | – | –
CCOP(=O)(OCC)C(Cc1cc(C)c(O)c(C(C)(C)C)c1)P(=O)(OCC)OCC [Compound 1, Tetraethyl 2-(3-tertiarybutyl-4-hydroxy-5-methylphenyl)-ethylidene-1,1-diphosphonate] | -2 | -28 | – | – | – | – | – | – | –
CCOP(=O)(OCC)C(Cc1cc(C(C)(C)C)c(O)c(C(C)(C)C)c1)P(=O)(N(C)C)N(C)C (stereo not shown) [Compound 19, Diethyl 1-bis(dimethylamino)phosphinyl-2-(3,5-ditertiarybutyl-4-hydroxyphenyl)ethylphosphonate] | -6 | -44 | – | – | – | – | more than 44% | – | –
